# Assay results from PubChem BioAssay AID1259407 (Chemical Carcinogenesis Research Information System (CCRIS), 2018).
# The source made the active and inactive calls. The rule behind the calls is not given here.
# Tested on: CCRIS mutagenicity, Ames/micronucleus/aberration tests
# Assay: CCRIS mutagenicity studies
# [1] = Test System: AMES SALMONELLA TYPHIMURIUM, Strain/Indicator: TA98 (NR), Metabolic Activation: NONE, Method: STANDARD PLATE
# [2] = Test System: AMES SALMONELLA TYPHIMURIUM, Strain/Indicator: TA98, Metabolic Activation: NONE, Method: STANDARD PLATE
structure (smiles),measurement,setting,value
Cn1c([N+](=O)[O-])cnc1-c1nnc(N)s1,mutagenic call,"End Point: IN VITRO CHROMOSOMAL ABERRATIONS, Test System: HUMAN PERIPHERAL LYMPHOCYTES, Species: HUMAN, Strain/Sex: MALE, FEMALE, Metabolic Activation: NONE",active; positive (structural changes)
same,mutagenic call,"End Point: IN VITRO CHROMOSOMAL ABERRATIONS, Test System: HUMAN PERIPHERAL LYMPHOCYTES, Species: HUMAN, Strain/Sex: MALE, FEMALE, Metabolic Activation: RAT, LIVER, S-9, AROCLOR 1254 (5%)",active; positive (structural changes)
same,mutagenic call,"End Point: IN VITRO CHROMOSOMAL ABERRATIONS, Test System: HUMAN PERIPHERAL LYMPHOCYTES, Species: HUMAN, Strain/Sex: MALE, FEMALE, Metabolic Activation: RAT, LIVER, S-9, AROCLOR 1254 (10%)",active; positive (structural changes)
same,mutagenic call,"End Point: IN VITRO MICRONUCLEUS, Test System: L5178Y MOUSE LYMPHOMA (TK+/-), Metabolic Activation: NONE",active; positive (increase in micronucleated cells)
same,mutagenic call,"End Point: IN VITRO MICRONUCLEUS, Test System: L5178Y MOUSE LYMPHOMA (TK+/-), Metabolic Activation: RAT, LIVER, S-9, AROCLOR 1254",active; positive (increase in micronucleated cells)
same,mutagenic call,"End Point: IN VIVO MICRONUCLEUS, Test System: BONE MARROW POLYCHROMATIC ERYTHROCYTES, Species: RAT, Strain/Sex: SPRAGUE-DAWLEY/MALE, FEMALE",active; positive
same,mutagenic call,"End Point: IN VIVO MICRONUCLEUS, Test System: BONE MARROW POLYCHROMATIC ERYTHROCYTES, Species: RAT, Strain/Sex: SPRAGUE-DAWLEY/MALE, FEMALE, Route: ORAL",active; positive
same,mutagenic call,"Test System: AMES SALMONELLA TYPHIMURIUM, Strain/Indicator: TA98 (DNP-6), Metabolic Activation: NONE, Method: DESICCATOR",active; positive
same,mutagenic call,"Test System: AMES SALMONELLA TYPHIMURIUM, Strain/Indicator: TA98 (DNP-6), Metabolic Activation: NONE, Method: STANDARD PLATE",active; positive
same,mutagenic call,"Test System: AMES SALMONELLA TYPHIMURIUM, Strain/Indicator: TA98 (DNP-6), Metabolic Activation: RAT LIVER S-9, AROCLOR 1254, 10% (W/V), Method: DESICCATOR",active; positive
same,mutagenic call,"Test System: AMES SALMONELLA TYPHIMURIUM, Strain/Indicator: TA98 (DNP-6), Metabolic Activation: RAT LIVER S-9, AROCLOR 1254, 10% (W/V), Method: STANDARD PLATE",active; positive
same,mutagenic call,"Test System: AMES SALMONELLA TYPHIMURIUM, Strain/Indicator: TA98 (NR), Metabolic Activation: NONE, Method: DESICCATOR",inactive; negative
same,mutagenic call,[1],inactive; negative
same,mutagenic call,"Test System: AMES SALMONELLA TYPHIMURIUM, Strain/Indicator: TA98 (NR), Metabolic Activation: RAT LIVER S-9, AROCLOR 1254, 10% (W/V), Method: DESICCATOR",inactive; negative
same,mutagenic call,"Test System: AMES SALMONELLA TYPHIMURIUM, Strain/Indicator: TA98 (NR), Metabolic Activation: RAT LIVER S-9, AROCLOR 1254, 10% (W/V), Method: STANDARD PLATE",inactive; negative
same,mutagenic call,"Test System: AMES SALMONELLA TYPHIMURIUM, Strain/Indicator: TA98, Metabolic Activation: NONE, Method: DESICCATOR",active; positive
same,mutagenic call,[2],active; positive
same,mutagenic call,"Test System: AMES SALMONELLA TYPHIMURIUM, Strain/Indicator: TA98, Metabolic Activation: RAT LIVER S-9, AROCLOR 1254, 10% (W/V), Method: DESICCATOR",active; positive
same,mutagenic call,"Test System: AMES SALMONELLA TYPHIMURIUM, Strain/Indicator: TA98, Metabolic Activation: RAT LIVER S-9, AROCLOR 1254, 10% (W/V), Method: STANDARD PLATE",active; positive
same,mutagenic call,"Test System: AMES SALMONELLA TYPHIMURIUM, Strain/Indicator: TA98, Metabolic Activation: RAT, LIVER, S-9, AROCLOR 1254, Method: STANDARD PLATE",active; positive
same,mutagenic call,"Test System: AMES SALMONELLA TYPHIMURIUM, Strain/Indicator: TA102, Metabolic Activation: NONE, Method: STANDARD PLATE",active; positive
same,mutagenic call,"Test System: AMES SALMONELLA TYPHIMURIUM, Strain/Indicator: TA102, Metabolic Activation: RAT, LIVER, S-9, AROCLOR 1254, Method: STANDARD PLATE",active; positive
CN(Cc1ccc([N+](=O)[O-])cc1)N=O,mutagenic call,"Test System: AMES SALMONELLA TYPHIMURIUM, Strain/Indicator: TA1535, Metabolic Activation: HAMSTER, LIVER, S-9, AROCLOR 1254, Method: STANDARD PLATE",active; positive
same,mutagenic call,"Test System: AMES SALMONELLA TYPHIMURIUM, Strain/Indicator: TA1535, Metabolic Activation: NONE, Method: STANDARD PLATE",inactive; negative
Cc1ccc(/C=C/c2ccc([N+](=O)[O-])cc2)cc1,mutagenic call,[1],inactive; negative
same,mutagenic call,"Test System: AMES SALMONELLA TYPHIMURIUM, Strain/Indicator: TA98 (NR), Metabolic Activation: S-9, Method: STANDARD PLATE",active; positive
same,mutagenic call,[2],active; positive
same,mutagenic call,"Test System: AMES SALMONELLA TYPHIMURIUM, Strain/Indicator: TA98, Metabolic Activation: RAT, LIVER, S-9, AROCLOR, Method: STANDARD PLATE",active; positive
same,mutagenic call,"Test System: AMES SALMONELLA TYPHIMURIUM, Strain/Indicator: TA98, Metabolic Activation: S-9, Method: STANDARD PLATE",active; positive
same,mutagenic call,"Test System: AMES SALMONELLA TYPHIMURIUM, Strain/Indicator: TA100 (NR), Metabolic Activation: NONE, Method: STANDARD PLATE",inactive; negative
same,mutagenic call,"Test System: AMES SALMONELLA TYPHIMURIUM, Strain/Indicator: TA100 (NR), Metabolic Activation: S-9, Method: STANDARD PLATE",active; positive
same,mutagenic call,"Test System: AMES SALMONELLA TYPHIMURIUM, Strain/Indicator: TA100, Metabolic Activation: NONE, Method: STANDARD PLATE",active; positive
same,mutagenic call,"Test System: AMES SALMONELLA TYPHIMURIUM, Strain/Indicator: TA100, Metabolic Activation: RAT, LIVER, S-9, AROCLOR, Method: STANDARD PLATE",active; positive
same,mutagenic call,"Test System: AMES SALMONELLA TYPHIMURIUM, Strain/Indicator: TA100, Metabolic Activation: S-9, Method: STANDARD PLATE",active; positive
